Experimental data as given in US20210054028A1, “BACTERIAL SIDEROPHORE GRAMIBACTIN” (Leibniz-Institut für Naturstoff-Forschung und …, priority 2017, published 2021).
Entries after “also recorded” stand apart in the source; their conditions may differ. *1 amine or outer side, *2 acyl side, *3 side chain or, on linkers, in order; H or OH if unused. Where a SMILES comes first, the peptide text is derived from it. Bridges are numbered along the chain shown (N, C = ends). [ ]: non-standard residue; d: D form. The star is where a group is joined. dAsp(3R-OH) = N[C@@H](C(=O)O)[C@@H](O)C(=O)O; X1 = O=NN(O)CCC[C@@H](N[*:1])C(=O)[*:2]; d(aThr) = C[C@@H](O)[C@@H](N)C(=O)O; Octanoyl = CCCCCCCC(=O)*

Legend:
[1] = test system: corn plants; test: Chlorophyll content determination in hydroponically grown corn plants; type: in vivo, Zea mays L. ssp. saccharata; conditions: 50 μM in nutrient solution; 21 d hydroponic growth; 3rd leaf
Experimental: Corn plants were grown in nutrient solutions deficient in iron, or supplementing either Fe-EDTA (positive control) or Fe-gramibactin. Solvent and metal-free chelators were used as negative controls. As readout for iron uptake we measured the chlorophyll content of youngest leaves, since chlorophyll biosynthesis is strongly dependent on iron availability (11).
Seeds from maize (Zea mays L. ssp. saccharata) were commercially acquired (Kiepenkerl) and surface sterilized in 4.5% (v/v) sodium hypochlorite for 10 minutes and subsequently rinsed 5 times with 50 mL sterile distilled water. Seeds were germinated in rolled filter papers soaked with sat. CaSO4 solution for 3 d in at 30° C. in the dark. […]
Plants were grown hydroponically for 21 days using the above described adjusted nutrient solution. […] The last developed leaf of each plant (3rd leaf) was removed, and fresh weight was determined. […] The residue was dissolved in 1 mL methanol and 1:10 or 1:20 dilutions with methanol were analysed spectrophotometrically using a Shimadzu UV-1800 spectrophotometer. Samples were measured at 25° C. using discardable plastic cuvettes (d=1 cm). […] Chlorophyll contents were calculated using the equations developed by Wellburn.

[2] = test system: corn roots; test: In planta NO release assay with DAF-2DA, fluorescence microscopy; type: in vivo, Zea mays L. ssp. saccharata; conditions: 100 μM; 1.5-2 h after loading with 10 μM DAF-2DA
Experimental: To verify the postulated NO release in planta we treated fresh corn seedlings with diaminofluoresceine-2-diacetate (DAF-2DA), a cell-permeable probe that captures NO with formation of a highly fluorescent triazole. After loading maize roots with the chemical probe they were incubated with negative controls, gramibactin, or Fe-gramibactin, then cut and inspected by fluorescence microscopy. […] Thus, NO is in fact liberated from gramibactin in the plant tissue. A weak signal was also detectable in the root treated with the Fe-gramibactin complex. This finding is important as it confirms that iron is removed from gramibactin in vivo, thus providing free ligands that can subsequently release nitric oxide. Finally, fluorescence microscopy also allowed localizing NO, which is apparently released into the intracellular space. This observation is plausible as peroxidases, which are required for NO release, are typically located in the cell membrane.
Young seedlings (2-3 days old) were placed in a vial containing 4 mL standard nutrient solution (see above) with 10 μm 4,5-diaminofluorescein diacetate and incubated at room temperature for 30 min. Seedlings were then removed, and the root was rinsed with deionized water before placing them in nutrient solution containing 100 μm gramibactin, 100 μm Fe-gramibactin or no additive (control). […]

[3] = Potentiometric and spectrophotometric titrations of the gramibactin/Fe3+ system with EDTA as competitive chelating agent; type: physicochemical; conditions: I=0.1 M KCl
Source text: (§1) To evaluate the actual strength of the siderophore, we conducted potentiometric and spectrophotometric titrations to evaluate the acid/base behavior of gramibactin and to determine the complex formation constant of the iron complex (FIG. 2C). […] It thus appeared conceivable that the rhizosphere bacteria excrete the metal chelator to provide the host plant with iron.
(§2) Potentiometric ligand competition measurements and calculations have been performed as reported (11) at l=0.1 M in KCl(aq) and at T=25.0±0.1° C., using a Mettler Toledo DL50 apparatus, equipped with a Schott Instruments N6180 combined glass electrode, controlled by LabX light v1.05 software. The titrand solutions consisted in gramibactin (from 0.7 mm to 1 mm), EDTA (as disodium salt) and Fe^3+ (as FeCl3) in different gramibactin:Fe^3+:EDTA ratios, with slight known excess of HCl.
(§3) This can be explained by a buffering effect of the two N-nitroso-hydroxylamine moieties. […]
(§4) Titrations were carried out at 0.1 m in KCl(aq) and T=25.0±0.1° C. in a glass cuvette (d=10.00 mm) placed in the spectrometer equipped with a thermostated cell holder. The pH was read out by using a inoLab pH 7110 with a combination electrode (SI analytics, ScienceLine Type N 6000 A). […] UV/Vis-spectra were recorded after every addition of KOH(aq) followed by magnetic stirring (FIG. 12).

[4] = Acid/base titration and speciation of gramibactin; type: physicochemical; conditions: physiological pH; I=0.1 M KCl; 25 °C
Source text: as §1, §2, §3, §4

[5] = test system: extracted proteins from corn roots; test: In vitro NO release assay with 2,3-diaminonaphthalene probe; type: biochemical, Zea mays L. ssp. saccharata; conditions: 2 mM test substance, 1.2 mM H2O2, 0.2 mM DAN, root proteins, 20 min, pH 6
Experimental: To probe the proposed enzymatic NO release in vitro, we extracted soluble proteins from ground root tissue of hydroponically grown plants into phosphate buffer. To monitor the liberation of NO in the in vitro enzyme assay, we used 2,3-diaminonaphthalene (DAN) as a reporter. Nitric oxide reacts with this chemical probe to form the 2,3-napthotriazole, and its strong fluorescence can be readily measured using a microplate reader. Extracted root proteins were incubated with the probe, hydrogen peroxide and either Fe-gramibactin or the iron-free ligand, using heat-inactivated proteins as negative control. […] Thus, gramibactin represents a novel NO donor.
One-week-old plants were harvested and the roots were rinsed with distilled water. After separating the roots from the shoot, the root tissue was frozen using liquid nitrogen and grounded with mortar and pestle. The plant material was then extracted using 1 mL 66 mm NaH2PO4 buffer (pH 6). The extract was centrifuged to remove remaining plant material, and 20 μL of the supernatant were used for in vitro assays. […] Fluorescence was measured using a Varioskan LUX (Thermo Scientific) microplate reader (IEx.=375 nm, IEm.=415 nm). Fluorescence values were normalized to the sample with the highest fluorescence. Every assay was performed in triplicates and every replicate was measured three times, and the mean of all these replicates was plotted. […]

| SMILES | higher total chlorophyll content versus iron-free cultured plants [1] | DAF-2T fluorescence signal in root cross sections (NO release in planta) [2] | log □ (complex formation constant of the iron complex) ([3]; disodium EDTA as competitive chelating agent, T=25.0±0.1 °C) | protons released upon metal complexation ([3]; potentiometric titration, gramibactin:Fe3+ 1:1, 25 °C) | protonation state of graminine residues (speciation diagram) [4] | fluorescence of 2,3-naphthotriazole (NO release) [5] |
| --- | --- | --- | --- | --- | --- | --- |
| O=C([O-])CN(CCN(CC(=O)[O-])CC(=O)[O-])CC(=O)[O-].[Fe+3] [Fe-EDTA] | 50% | – | – | – | – | – |
| CCCCCCCC(=O)N[C@@H](C(=O)N[C@@H]1C(=O)N[C@H]([C@@H](C)O)C(=O)N[C@H](CCCN(O)N=O)C(=O)NCC(=O)N[C@H](CCCN(O)N=O)C(=O)O[C@@H]1C)[C@@H](O)C(=O)O [gramibactin] (Octanoyl-[dAsp(3R-OH)]T[d(aThr)][X1]G[X1]; ester 2-C) | – | strong signal; also recorded: liberates NO | 27.6±0.1 | four | both graminine residues are deprotonated at physiological pH | drastically increased fluorescence; also recorded: liberates NO |
